We go through eight compounds from PubChem BioAssay (NCI).

Among the test systems are UACC-62 melanoma; HL-60(TB) leukemia; MDA-MB-231 breast; SNB-19 CNS; MDA-MB-435; SF-539 CNS; U251 CNS; EKVX NSCLC; HCT-116 colon; NCI-H23 lung; MALME-3M melanoma; SNB-75 CNS; NCI-H522 lung; DU-145 prostate; RXF 393 renal; MDA-N; UO-31 renal; CAKI-1 renal; SK-MEL-2 melanoma.
Holding throughout (test): NCI-60 cell line screen, 48 h

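Assay format: 96-well plates, 48-hour exposure. TGI is the concentration that stops growth completely.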 Where a SMILES comes first, the peptide text is derived from it. The star is where a group is joined. Pentanoyl = CCCCC(=O)*; Boc = CC(C)(C)OC(=O)*

Take `Cc1nc2ccccc2c(=O)n1NC(=O)c1ccc([N+](=O)[O-])cc1`: the TGI with UACC-62 melanoma, in the assay with HL-60(TB) leukemia, with MDA-MB-231 breast, in the assay on SNB-19 CNS, in the assay with MDA-MB-435 and in the assay on SF-539 CNS was greater than 100 µM throughout. The TGI with U251 CNS, in the assay with EKVX NSCLC, in the assay with HCT-116 colon, in the assay on NCI-H23 lung, in the assay on MALME-3M melanoma and in the assay with SNB-75 CNS was greater than 100 µM throughout. The TGI with NCI-H522 lung, in the assay with DU-145 prostate, in the assay with RXF 393 renal, with MDA-N and in the assay on UO-31 renal was greater than 100 µM throughout.
In the case of `CCC(=O)N1NC(=O)C(CC)(CC)C1=O`, the TGI in the assay on UACC-62 melanoma, in the assay on HL-60(TB) leukemia, in the assay on MDA-MB-231 breast, with SNB-19 CNS, with MDA-MB-435 and in the assay on U251 CNS was greater than 100 µM in each case. Besides, the TGI in the assay with EKVX NSCLC, in the assay on HCT-116 colon, in the assay with NCI-H23 lung, in the assay on SNB-75 CNS, in the assay with NCI-H522 lung and in the assay on DU-145 prostate was greater than 100 µM each time. For the same compound, the TGI in the assay with RXF 393 renal, in the assay with CAKI-1 renal, in the assay on MDA-N, in the assay with SK-MEL-2 melanoma and with UO-31 renal was greater than 100 µM throughout.
Take `O=P1(c2ccccc2)c2ccccc2CCc2ccccc21`: the TGI with UACC-62 melanoma, in the assay with HL-60(TB) leukemia, with MDA-MB-231 breast, in the assay on SNB-19 CNS, with MDA-MB-435 and in the assay on SF-539 CNS was greater than 100 µM each time. For the same compound, the TGI with EKVX NSCLC, in the assay with HCT-116 colon, in the assay on NCI-H23 lung, with SNB-75 CNS, in the assay on NCI-H522 lung and in the assay with DU-145 prostate was greater than 100 µM throughout. For the same compound, the TGI with RXF 393 renal, with CAKI-1 renal, in the assay with MDA-N, in the assay with SK-MEL-2 melanoma and with UO-31 renal was greater than 100 µM in each case.
Consider `C=C1CCCCCCCCCCC12SCCC2CCCCSC` (stereo unspecified), for which the TGI in the assay on UACC-62 melanoma was 76 µM; with HL-60(TB) leukemia, 44.7 µM; with MDA-MB-231 breast, 39 µM; in the assay with SNB-19 CNS, 52.2 µM; in the assay on MDA-MB-435, 75.7 µM; with SF-539 CNS, 38.3 µM. Further, the TGI in the assay with U251 CNS is 33.8 µM; in the assay on EKVX NSCLC, 86.4 µM; with HCT-116 colon, 33.9 µM; in the assay with NCI-H23 lung, 56.9 µM; in the assay on MALME-3M melanoma it was 36.2 µM; in the assay on NCI-H522 lung it was 36.8 µM. Moreover, the TGI in the assay on DU-145 prostate is greater than 100 µM; in the assay with RXF 393 renal it was 50.4 µM; in the assay on MDA-N it was greater than 100 µM; in the assay on SK-MEL-2 melanoma, 37.7 µM; in the assay with UO-31 renal, 60.4 µM.
As for `O=C1C(Cl)=C(N2C(=O)CCCC2=O)C(=O)c2ccccc21`, the TGI with UACC-62 melanoma came to 37.4 µM; in the assay on HL-60(TB) leukemia, 4.42 µM; in the assay on MDA-MB-231 breast it was 50.5 µM; in the assay on MDA-MB-435 it was 44.9 µM; in the assay on SF-539 CNS, 38 µM; in the assay on U251 CNS, 66.1 µM. Also, the TGI in the assay on EKVX NSCLC was 33.2 µM; in the assay with HCT-116 colon, 32 µM; in the assay on NCI-H23 lung, 36 µM; in the assay on SNB-75 CNS, greater than 100 µM; in the assay with NCI-H522 lung it was 4.53 µM; in the assay on DU-145 prostate, 30.2 µM. The TGI with RXF 393 renal was found to be 31.9 µM; in the assay with CAKI-1 renal, 27.2 µM; with MDA-N, 31 µM; in the assay on SK-MEL-2 melanoma, 49 µM; in the assay on UO-31 renal, 23 µM.
Regarding `O=C1/C(=C/c2ccc(Cl)cc2)N=C(c2ccccc2)N1c1nc2ccccc2s1`, the TGI was 18.4 µM in the assay on HL-60(TB) leukemia; greater than 100 µM in the assay on MDA-MB-231 breast; greater than 100 µM with MDA-MB-435; greater than 100 µM in the assay on SF-539 CNS; greater than 100 µM in the assay with U251 CNS; greater than 100 µM in the assay with EKVX NSCLC. In addition, the TGI in the assay with HCT-116 colon is greater than 100 µM; in the assay on NCI-H23 lung, greater than 100 µM; with SNB-75 CNS, greater than 100 µM; in the assay on NCI-H522 lung, 75.1 µM; with DU-145 prostate, greater than 100 µM; in the assay with RXF 393 renal, greater than 100 µM. Moreover, the TGI with CAKI-1 renal is greater than 100 µM; in the assay with MDA-N it was greater than 100 µM; in the assay on SK-MEL-2 melanoma, 88.2 µM; in the assay with UO-31 renal it was greater than 100 µM.
As to `N#Cc1c(NCCc2ccc(F)cc2)c2ccccc2n2c1nc1ccccc12`, the TGI is 32.8 µM with UACC-62 melanoma; greater than 100 µM in the assay on HL-60(TB) leukemia; 36.3 µM with MDA-MB-231 breast; 51 µM in the assay with SNB-19 CNS; greater than 100 µM with MDA-MB-435; greater than 100 µM with SF-539 CNS. Further, the TGI in the assay on U251 CNS was 61 µM; in the assay on EKVX NSCLC, 29.3 µM; with HCT-116 colon it was greater than 100 µM; in the assay with NCI-H23 lung, 39.1 µM; with SNB-75 CNS, 30.8 µM; in the assay on DU-145 prostate, 98.1 µM. Besides, the TGI in the assay on RXF 393 renal is 65.7 µM; in the assay with CAKI-1 renal, 29.1 µM; in the assay on MDA-N, greater than 100 µM; in the assay on SK-MEL-2 melanoma, greater than 100 µM; in the assay on UO-31 renal it was 39.5 µM.
Take `CCCCC(=O)Oc1ccc(CC(NC(=O)OC(C)(C)C)C(=O)NC(C)C(=O)NC(Cc2ccccc2)C(=O)NCC(N)=O)cc1` (stereo unspecified) (Boc-Y(Pentanoyl)AFG-NH2; configuration not given here): the TGI is 45.5 µM in the assay on UACC-62 melanoma; 61 µM in the assay on HL-60(TB) leukemia; 41.6 µM in the assay with MDA-MB-231 breast; 59 µM with SNB-19 CNS; 45.1 µM in the assay with MDA-MB-435; greater than 100 µM in the assay with SF-539 CNS. Also, the TGI in the assay with U251 CNS is 40.6 µM; in the assay on HCT-116 colon, 47.1 µM; in the assay with NCI-H23 lung, greater than 100 µM; in the assay with MALME-3M melanoma, greater than 100 µM; in the assay with SNB-75 CNS, greater than 100 µM; in the assay with NCI-H522 lung it was 39.5 µM. The TGI is greater than 100 µM with DU-145 prostate; greater than 100 µM in the assay with RXF 393 renal; greater than 100 µM in the assay on CAKI-1 renal; 65.8 µM in the assay on MDA-N; 41.1 µM with SK-MEL-2 melanoma; greater than 100 µM in the assay with UO-31 renal.
